The values below come from paper PMC11288311 (Cell chemical biology, 2022).

One series deals with mouse LRH-1 (Mus musculus, UniProt P45448). Briefly: Activation of mouse LRH-1 in vitro.
Another series deals with hLRH-1 enteroids. As to the kind of experiment: Gene expression in TNF-stimulated humanized LRH-1 mouse intestinal enteroids. Format: cell-based. As to conditions: 1 μM overnight, not observed in LRH-1-deficient enteroids.
A further series has as its system LRH-1 K520A. As to the kind of experiment: Luciferase reporter assay with LRH-1 K520A mutant. As to conditions: K520A mutation, 30 μM, 24 hours. Format: cell-based, human. Background: In a reporter assay the amount or activity of a reporter protein is the signal.
For series [1], the system named is endogenous LRH-1 in Huh7 hepatocytes. Briefly: qRT-PCR of LRH-1 targets in Huh7 hepatocytes. Format: cell-based, human. To be noted: Huh7, 24-hour treatment. (In general: Quantitative PCR measures a nucleic acid by following its amplification.)
Series [2] deals with human LRH-1 (hLRH-1) in the liver. As to the kind of experiment: Liver gene expression.
In the next series the test system is hLRH1 IEC Rag2-/- mice. Briefly: T cell transfer. Format: in vivo, mouse. As to conditions: 20 mg/kg i.p., 16 days.
A short description of series [3]: Aqueous solubility by LC-MS in PBS. It is filed as physicochemical. To be noted: PBS pH 7.4, 25°C, 2 hours.
The test system of the next series is LRH-1 LBD Y516A or K520A. It is filed as binding, human. To be noted: Y516A or K520A mutation.

mouse LRH-1, sequence (P45448 whole entry): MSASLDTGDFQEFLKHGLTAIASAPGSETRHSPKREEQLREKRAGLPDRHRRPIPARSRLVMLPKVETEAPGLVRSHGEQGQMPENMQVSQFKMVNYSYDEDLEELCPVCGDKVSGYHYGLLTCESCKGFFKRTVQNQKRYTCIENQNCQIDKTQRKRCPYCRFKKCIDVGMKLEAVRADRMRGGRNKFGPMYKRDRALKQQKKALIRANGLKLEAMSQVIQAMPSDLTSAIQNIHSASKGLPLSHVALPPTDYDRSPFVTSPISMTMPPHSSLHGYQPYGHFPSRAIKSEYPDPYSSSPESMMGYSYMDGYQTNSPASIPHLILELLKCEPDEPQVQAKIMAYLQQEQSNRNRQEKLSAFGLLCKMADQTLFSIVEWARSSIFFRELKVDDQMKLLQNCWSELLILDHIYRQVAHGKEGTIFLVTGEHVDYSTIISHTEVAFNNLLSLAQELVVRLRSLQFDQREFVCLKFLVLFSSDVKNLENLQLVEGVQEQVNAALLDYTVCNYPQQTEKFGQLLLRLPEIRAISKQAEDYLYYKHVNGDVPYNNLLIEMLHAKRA

As to `C=C(c1ccccc1)[C@@]12CC[C@@H](O)[C@@H]1CC(CCCCCCCCCC(=O)O)=C2c1ccccc1` [Compound 10CA], the “Activation of mouse LRH-1” value at mouse LRH-1 was “poor activators of mouse LRH-1”. For the same compound, the “Expression of Cyp11a1 and Il-10” value in the series with hLRH-1 enteroids is given as “induces expression”. Also, in the series with LRH-1 K520A, the “Reduction of activation versus WT LRH-1” value is “around 60%”. For the same compound, in series [1], the “Expression of LRH-1 targets SHP (NR0B2) and PLK3” value was “dose-dependently upregulates”; the “Expression of de novo lipogenesis targets SREBF1, ACACB, FASN, SCD1” value is “downregulates”. Further, the “Liver expression of lipogenic genes (Fasn, Acacb, Scd1)” value in series [2] (0.1, 1 or 10 mg/kg, five i.p. injections over three days) was “downregulation of lipogenic genes”. In series [2] (not statistically significant, p = 0.09 versus vehicle), the “Liver expression of Srebf1” value is “trends lower”. In the series on hLRH1 IEC Rag2-/- mice, the “Body weight at end of study relative to mean pre-treatment body weight” value was not above 1%; the Colon histology scores result is listed as “markedly improved”; the “Expression of LRH-1 targets Cyp8b1, Cyp11a1, Cyp11b1 in colonic crypts” value is reported as “strong upregulation”.

`C=C(c1ccccc1)[C@@]12CC[C@@H](O)[C@@H]1CC(CCCCCC)=C2c1ccccc1` [RJW100] returned an Aqueous solubility limit in series [3] of 2.9 µM. Moreover, the “Decrease in binding affinity, mutant versus WT LRH-1” value with LRH-1 LBD Y516A or K520A is “insensitive or less sensitive”.
